Values of other authors, collected in PubChem BioAssay AID1259409 (Chemical Carcinogenesis Research Information System (CCRIS), 2018).
Values joined by “and” are separate entries in the source; they are usually repeats but may differ in a detail not shown here. Identical values can stand only once.

System: rodent chemically induced tumor inhibition, incidence and multiplicity
Experiment: CCRIS tumor inhibitor studies

C=CCc1ccc(O)c(OC)c1
tumour outcome (control, treated, inhibition, significance) (Carcinogen: BENZO[A]PYRENE, 50-32-8, Dose [Inhibitor]: 10 MG IN 0.1 ML ACETONE 3/WK ADMINISTERED SIMULTANEOUSLY WITH CARCINOGEN FOR DU RATION OF STUDY (STUDY DURATION: 368 D), Route [Inhibitor]: DERMAL, Species: MOUSE, Strain/Sex: ICR/FEMALE, Target Tissue: Type of Lesion: SKIN: PAPILLOMA, Dose [Carcinogen]: 5 UG IN 0.1 ML ACETONE 3/WK FOR DURATION OF STUDY, Promoter: NONE USED): 14/50 (28%), 4/50 (8%), 71%, not calculated | tumour outcome (control, treated, inhibition, significance) (Carcinogen: BENZO[A]PYRENE, 50-32-8, Dose [Inhibitor]: 10 MG IN 0.1 ML ACETONE 3/WK ADMINISTERED SIMULTANEOUSLY WITH CARCINOGEN FOR DU RATION OF STUDY (STUDY DURATION: 368 D), Route [Inhibitor]: DERMAL, Species: MOUSE, Strain/Sex: ICR/FEMALE, Target Tissue: Type of Lesion: SKIN: SQUAMOUS CARCINOMA, Dose [Carcinogen]: 5 UG IN 0.1 ML ACETONE 3/WK FOR DURATION OF STUDY, Promoter: NONE USED): 10/50 (20%), 2/50 (4%), 80%, not calculated

O=c1ccc2cc(O)c(O)cc2o1
tumour outcome (control, treated, inhibition, significance) (Carcinogen: 7,12-DIMETHYLBENZ[A]ANTHRACENE, 57-97-6, Dose [Inhibitor]: 0, 0.03% IN HIGH-FAT (20% SOYBEAN OIL) DIET FOR 19 WK BEGINNING 1 WK POST CARCINOGEN DOSE (STUDY DURATION: 20 WK), Route [Inhibitor]: ORAL, Species: RAT, Strain/Sex: SPRAGUE-DAWLEY/FEMALE, Target Tissue: Type of Lesion: MAMMARY GLAND: TUMOR, Dose [Carcinogen]: 5 MG ONCE, Promoter: NONE USED): 13/15 (87%), 8/15 (53%), 39%, p<0.05 | tumour outcome (control, treated, inhibition, significance) (Carcinogen: 7,12-DIMETHYLBENZ[A]ANTHRACENE, 57-97-6, Dose [Inhibitor]: 0, 0.03% IN HIGH-FAT (20% SOYBEAN OIL) DIET FOR 20 WK BEGINNING 1 WK POST CARCINOGEN DOSE (STUDY DURATION: 21 WK), Route [Inhibitor]: ORAL, Species: RAT, Strain/Sex: SPRAGUE-DAWLEY/FEMALE, Target Tissue: Type of Lesion: MAMMARY GLAND: ADENOCARCINOMA, Dose [Carcinogen]: 5 MG ONCE, Promoter: NONE USED): 17/20 (85%), 10/19 (53%), 38%, p<0.05 | tumour outcome (control, treated, inhibition, significance) (Carcinogen: 7,12-DIMETHYLBENZ[A]ANTHRACENE, 57-97-6, Dose [Inhibitor]: 0, 0.03% IN LOW-FAT (0.5% SOYBEAN OIL) DIET FOR 19 WK BEGINNING 1 WK POST CARCINOGEN DOSE (STUDY DURATION: 20 WK), Route [Inhibitor]: ORAL, Species: RAT, Strain/Sex: SPRAGUE-DAWLEY/FEMALE, Target Tissue: Type of Lesion: MAMMARY GLAND: TUMOR, Dose [Carcinogen]: 5 MG ONCE, Promoter: NONE USED): 8/15 (53%), 3/15 (20%), 62%, not significant | tumour outcome (control, treated, inhibition, significance) (Carcinogen: 7,12-DIMETHYLBENZ[A]ANTHRACENE, 57-97-6, Dose [Inhibitor]: 0, 0.03% IN LOW-FAT (0.5% SOYBEAN OIL) DIET FOR 20 WK BEGINNING 1 WK POST CARCINOGEN DOSE (STUDY DURATION: 21 WK), Route [Inhibitor]: ORAL, Species: RAT, Strain/Sex: SPRAGUE-DAWLEY/FEMALE, Target Tissue: Type of Lesion: MAMMARY GLAND: ADENOCARCINOMA, Dose [Carcinogen]: 5 MG ONCE, Promoter: NONE USED): 10/18 (56%), 4/22 (18%), 68%, p<0.05 | tumour outcome (control, treated, inhibition, significance) (Carcinogen: N-METHYL-N-NITROSOUREA, 684-93-5, Dose [Inhibitor]: 0, 0.03% IN DIET FOR 24 WK BEGINNING 1 WK POST CARCINOGEN DOSE (STUDY DURATION: 25 WK), Route [Inhibitor]: ORAL, Species: RAT, Strain/Sex: SPRAGUE-DAWLEY/FEMALE, Target Tissue: Type of Lesion: MAMMARY GLAND: TUMOR, Dose [Carcinogen]: 50 MG/KG ONCE, Promoter: NONE USED): 24/30 (80%), 17/31 (55%), 31%, p<0.05

COc1cc(C[C@@H](CO)[C@H](CO)Cc2ccc(O)c(OC)c2)ccc1O
tumour outcome (control, treated, inhibition, significance) (Carcinogen: 7,12-DIMETHYLBENZ[A]ANTHRACENE, 57-97-6, Dose [Inhibitor]: 0, 1.5 MG IN 1 ML OF DISTILLED WATER 1/D FOR 20 WK BEGINNING 1 WK POST CARCINOGEN DOSE (STUDY DURATION: 21 WK), Route [Inhibitor]: GAVAGE, Species: RAT, Strain/Sex: SPRAGUE-DAWLEY/FEMALE, Target Tissue: Type of Lesion: MAMMARY GLAND: TUMOR, Dose [Carcinogen]: 5 MG IN 1 ML CORN OIL ONCE, Promoter: NONE USED): 26/30 (87%), 23/30 (77%), 11%, not significant

Cc1ccc2oc(=O)ccc2c1
tumour outcome (control, treated, inhibition, significance) (Carcinogen: BENZO[A]PYRENE, 50-32-8, Dose [Inhibitor]: 0.034 MMOL/G IN DIET FOR 5 WK BEGINNING 1 WK PRIOR TO FIRST CARCINOGEN DOSE AND CONTINUING FOR 3 D POST LAST CARCINOGEN, Route [Inhibitor]: ORAL, Species: MOUSE, Strain/Sex: ICR/FEMALE, Target Tissue: Type of Lesion: FORESTOMACH: TUMOR, Dose [Carcinogen]: 1 MG IN 0.2 ML CORN OIL 2/WK FOR 4 WK, Promoter: NONE USED): 90%, 90%, 0%, not significant

C=C(C)C1CC=C(CO)CC1 (stereo not drawn)
tumour outcome (control, treated, inhibition, significance) (Carcinogen: 4-(METHYLNITROSAMINO)-1-(3-PYRIDYL)-1-BUTANONE, 64091-91-4, Dose [Inhibitor]: 0, 75 MG/KG BW 3/WK FOR 22 WK BEGINNING 1 WK PRIOR TO CARCINOGEN TREATMENT (STUDY DURATION: 23 WK), Route [Inhibitor]: INTRAPERITONEAL, Species: MOUSE, Strain/Sex: C3AF1/MALE, Target Tissue: Type of Lesion: LUNG: TUMOR, Dose [Carcinogen]: 100 MG/KG BW 1/WK FOR 2 WK, Promoter: NONE USED): 100%, 79%, 21%, p<0.005 | tumour outcome (control, treated, inhibition, significance) (Carcinogen: AZOXYMETHANE [25843-45-2], Dose [Inhibitor]: 1 G/KG IN DIET FOR 55 WK BEGINNING 2 WK PRIOR TO FIRST CARCINOGEN DOSE (STUDY DURATION: 55 WK), Route [Inhibitor]: ORAL, Species: RAT, Strain/Sex: F344/MALE, Target Tissue: Type of Lesion: COLON: ADENOCARCINOMA, Dose [Carcinogen]: 15 MG/KG BW 1/WK FOR 2 WK (STUDY DURATION: 55 WK), Promoter: NONE): 78%, 64%, 18%, not significant and 78%, 56%, 29%, p<0.05 | tumour outcome (control, treated, inhibition, significance) (Carcinogen: AZOXYMETHANE [25843-45-2], Dose [Inhibitor]: 1 G/KG IN DIET FOR 55 WK BEGINNING 2 WK PRIOR TO FIRST CARCINOGEN DOSE (STUDY DURATION: 55 WK), Route [Inhibitor]: ORAL, Species: RAT, Strain/Sex: F344/MALE, Target Tissue: Type of Lesion: SMALL INTESTINE: ADENOCARCINOMA, Dose [Carcinogen]: 15 MG/KG BW 1/WK FOR 2 WK (STUDY DURATION: 55 WK), Promoter: NONE): 31%, 28%, 9%, not significant | tumour outcome (control, treated, inhibition, significance) (Carcinogen: AZOXYMETHANE [25843-45-2], Dose [Inhibitor]: 2 G/KG IN DIET FOR 55 WK BEGINNING 2 WK PRIOR TO FIRST CARCINOGEN DOSE (STUDY DURATION: 55 WK), Route [Inhibitor]: ORAL, Species: RAT, Strain/Sex: F344/MALE, Target Tissue: Type of Lesion: SMALL INTESTINE: ADENOCARCINOMA, Dose [Carcinogen]: 15 MG/KG BW 1X/WK FOR 2 WK (STUDY DURATION: 55 WK), Promoter: NONE): 31%, 11%, 64%, p<0.05
